Laboratory results reported in EP2764866A1, “Inhibitors of nedd8-activating enzyme” (IP Gesellschaft für Management mbH, priority 2013, dated 2014).
In brackets after ≈: the same amount, converted by molar mass. Counter-ions that a name gives are not always drawn. Like-named read-outs stand apart in the source and are kept apart here.

Key:
[1] = tested on: Human c-mpl-Ba/F3 cells; assay: Cell proliferation test for human c-mpl-Ba/F3 cells; type: cell-based
Method: Test Example I Cell Proliferation Test for Human c-mpl-Ba/F3 Cells: Human c-mpl-Ba/F3 cells at a concentration of 2 x 10^5 cells/mL were cultured at 37 °C on a 96 well microplate using RPMI 1640 culture medium (100 microliter/well) containing 10% fetal calf serum to which various concentrations of the test compound was added. After 24 hours from the start of culturing, 10 microliter/well of WST-1/1-methoxy PMS (cell measuring kit, Dojin) was added. Immediately after the addition and two hours later, the A450/A650 absorbance was measured using a microplate reader (Model 3350, Bio-Rad), and the increase in absorbance after 2 hours was interpreted to represent the proliferation activity of each test compound. […] Furthermore, the maximum cell proliferation activity of compound X maleic acid salt C type crystals ({drug1b}) was 102%, based on the maximum cell proliferation activity of rhTPO being 100%. […] Therefore, compound X maleic acid salt C type crystals ({drug1b}) are useful for treating and preventing various types of thrombocytopenia by having a thrombocytosis effect. […]

[2] = tested on: Ba/F3 cells where c-mpl was not introduced; assay: Cell proliferation test in Ba/F3 cells without c-mpl; type: cell-based
[3] = tested on: human c-mpl-Ba/F3 cell; assay: Mouse oral administration test (plasma activity in the c-mpl-Ba/F3 proliferation system); type: in vivo, male ICR mice; conditions: for Cell proliferation activity (%) 0.3%: 0.3% blood plasma concentration; for oral absorption: conclusion from the mouse oral administration test; for activity at 3 mg/kg: Mus musculus, po, 2 h
[4] = Hygroscopicity (water absorbed); type: physicochemical
[5] = pH 1, compared to the free acid form
[6] = dosed at 10mg/kg, compared to the free acid form
[7] = from COC(=O)[C@@H]1C[C@@H](Oc2nc3cc(OC)ccc3nc2C#CCCC[C@@H]2C[C@H]2OC(=O)N[C@H](C(=O)O)C(C)(C)C)CN1; amide bond; HATU; DMAc; 86.2 mM; 0.0 °C; 12.0 h
[8] = pKa; type: physicochemical
From the text: Suitable alkalizing agents include but are not limited to organic and inorganic basic compounds of a wide range of aqueous solubilities and molecular weights and mixtures thereof. Examples of inorganic basic salts include ammonium hydroxide, alkali metal salts, alkaline earth metal salts such as magnesium oxide, magnesium hydroxide, calcium hydroxide, sodium hydroxide, potassium hydroxide, aluminium hydroxide, potassium carbonate, sodium bicarbonate and the like and mixtures thereof. In particular, an alkalizing agent is selected from magnesium oxide, calcium carbonate, calcium phosphate and combinations thereof. More particularly, the alkalizing agent is magnesium oxide. […] Examples of precipitation inhibitors include but are not limited to polyvinyl pyrrolidone, for example those products known as PVP K30, PVP K29/32 and PVPP XL, and hydroxy propyl methyl cellulose (HPMC), for example those products known as […]® low viscous hypromellose-based water-soluble film coating agent. […] As used herein, the term "oral dosage form" refers to physically discrete units suitable as unitary dosages for humans and other mammals, each unit containing a predetermined quantity of a therapeutic agent in association with one or more pharmaceutically acceptable carrier. […]

[9] = physchem; conditions: pH 1.2, simulated gastric fluid
[10] = tested on: HCC78 cells; assay: cells; conditions: Homo sapiens, HCC78, read-out: IC50 for inhibition of HCC78 cell viability
[11] = Pharmacokinetics of Compound [1] in Phase I and II studies; conditions: continuous daily dosing regimen, doses of 400 mg/day and above
[12] = 3 mg/kg orally, blood 2 hours after administration, maximum activity of each test compound = 100%

Q: With O=C(Nc1nc(-c2cc(Cl)cs2)c(N2CCN(C3CCCCC3)CC2)s1)c1cnc(N2CCC(C(=O)O)CC2)c(Cl)c1.O=C(O)/C=C\C(=O)O [Compound X maleic acid salt C type crystal] [1-(3-chloro-5-{[4-(4-chlorothiophen-2-yl)-5-(4-cyclohexylpiperazin-1-yl)thiazol-2-yl]carbamoyl}pyridin-2-yl) piperidine-4-carboxylic acid maleic acid salt] as the molecule, how does the “maximum cell proliferation activity” value ([1]; based on the maximum cell proliferation activity of rhTPO being 100%) read?
A: Its value is 102%.

Q: What about the cell proliferation effect [2] of the same molecule?
A: Its cell proliferation effect is “not observed”.

Q: What about the “Cell proliferation activity (%) 0.3%” value [3, 12] of the same molecule?
A: Its value is over 80%.

Q: And the oral absorption [3]?
A: The oral absorption was “excellent oral absorption”.

Q: For CCC(CC)Nc1c(Nc2ccc(Cl)c(S(=O)(=O)N(C)OC)c2O)c(=O)c1=O [choline salt, 6-chloro-3-[2-(1-ethyl-propylamino)-3,4-dioxo-cyclobut-1-enylamino]-2-hydroxy-N-methoxy-N-methyl-benzenesulfonamide choline], which “amount of water absorbed” value ([4]; after 1 day at 80% humidity) is on record?
A: The value was 0.7 % by weight.

Q: What about the “amount of water absorbed” value ([4]; after 1 day at 92% humidity) of the same molecule?
A: The value was 0.6 % by weight.

Q: And the dissolution rate [5]?
A: The dissolution rate was “much improved”.

Q: What about the oral exposure [6] of the same molecule?
A: The oral exposure was “much improved”.

Q: For COC(=O)[C@@H]1C[C@@H]2CN1C(=O)[C@H](C(C)(C)C)NC(=O)O[C@@H]1C[C@H]1CCCC#Cc1nc3ccc(OC)cc3nc1O2, which ring closure, yield of all isomers [7] is on record?
A: Its ring closure, yield of all isomers is 88.6%.

Q: Which results are given for O=C(Nc1nc(-c2cc(Cl)cs2)c(N2CCN(C3CCCCC3)CC2)s1)c1cnc(N2CCC(C(=O)O)CC2)c(Cl)c1.O=C(O)/C=C\C(=O)O [Compound X maleic acid salt B type crystal] [1-(3-chloro-5-{[4-(4-chlorothiophen-2-yl)-5-(4-cyclohexylpiperazin-1-yl)thiazol-2-yl]carbamoyl}pyridin-2-yl) piperidine-4-carboxylic acid maleic acid salt]?
A: Cell proliferation activity (%) 0.3% [3, 12]: < 10%; oral absorption ([3]; listed as compound X maleic acid B type crystals): inferior oral absorption

Q: With CCC(CC)Nc1c(Nc2ccc(Cl)c(S(=O)(=O)N(C)OC)c2O)c(=O)c1=O [free acid, 6-chloro-3-[2-(1-ethyl-propylamino)-3,4-dioxo-cyclobut-1-enylamino]-2-hydroxy-N-methoxy-N-methyl-benzenesulfonamide, reference compound] as the molecule, how does the “amount of water absorbed” value ([4]; after 1 day at 80% humidity) read?
A: Its value is 2.4 % by weight.

Q: What about the “amount of water absorbed” value ([4]; after 1 day at 92% humidity) of the same molecule?
A: The value was 2.8 % by weight.

Q: And the pKa [8]?
A: Its pKa is 5.4.

Q: What about the solubility [9] of the same molecule?
A: Its solubility is 1 µg/mL (≈ 2.32 µM).

Q: For O=C(Nc1nc(-c2cc(Cl)cs2)c(N2CCN(C3CCCCC3)CC2)s1)c1cnc(N2CCC(C(=O)O)CC2)c(Cl)c1 [1-(3-chloro-5-{[4-(4-chlorothiophen-2-yl)-5-(4-cyclohexylpiperazin-1-yl)thiazol-2-yl]carbamoyl}pyridin-2-yl) piperidine-4-carboxylic acid maleic acid salt, reference compound], which activity at 3 mg/kg ([3]; 3 mg/kg orally, blood 2 hours after administration, 10% blood plasma concentration, maximum activity of each test compound = 100%, read-out: Cell proliferation activity (%) 10%) is on record?
A: The activity at 3 mg/kg was over 80%.

Q: What does the source list for O=C(Nc1nc(-c2cc(Cl)cs2)c(N2CCN(C3CCCCC3)CC2)s1)c1cnc(N2CCC(C(=O)O)CC2)c(Cl)c1 [Compound X hydrochloride, reference compound]?
A: Cell proliferation activity (%) 0.3% [3, 12]: < 10%; Cell proliferation activity (%) 10% ([3]; 3 mg/kg orally, blood 2 hours after administration, 10% blood plasma concentration, maximum activity of each test compound = 100%): 34%

Q: What does the source list for O=C(Nc1nc(-c2cc(Cl)cs2)c(N2CCN(C3CCCCC3)CC2)s1)c1cnc(N2CCC(C(=O)O)CC2)c(Cl)c1.O=C(O)/C=C\C(=O)O [Compound X maleic acid salt A type crystal] [1-(3-chloro-5-{[4-(4-chlorothiophen-2-yl)-5-(4-cyclohexylpiperazin-1-yl)thiazol-2-yl]carbamoyl}pyridin-2-yl) piperidine-4-carboxylic acid maleic acid salt, reference compound]?
A: Cell proliferation activity (%) 0.3% [3, 12]: 55%; oral absorption ([3]; listed as compound X maleic acid salt A type crystals): excellent oral absorption

Q: Which results are given for O=C(Nc1nc(-c2cc(Cl)cs2)c(N2CCN(C3CCCCC3)CC2)s1)c1cnc(N2CCC(C(=O)O)CC2)c(Cl)c1 [1-(3-chloro-5-{[4-(4-chlorothiophen-2-yl)-5-(4-cyclohexylpiperazin-1-yl)thiazol-2-yl]carbamoyl}pyridin-2-yl) piperidine-4-carboxylic acid maleic acid salt]?
A: EC50 ([1]; Homo sapiens, 24 hours culture, WST-1/1-methoxy PMS readout, read-out: cell proliferation effect, EC50): 2 nM; activity at 3 mg/kg ([3]; 3 mg/kg orally, blood 2 hours after administration, 0.1% blood plasma concentration, maximum activity of each test compound = 100%, read-out: Cell proliferation activity (%) 0.1%): 30%

Q: For C[C@@H](Oc1cc(-c2cnn(C3CCNCC3)c2)cnc1N)c1c(Cl)ccc(F)c1Cl [Crizotinib, 3-[(R)-1-(2,6-dichloro-3-fluoro-phenyl)-ethoxy]-5-(1-piperidin-4-yl-1-H -pyrazol-4-yl)-pyridin-2-ylamine], which IC50 [10] is on record?
A: The IC50 was about 59 nM.

Q: With CN1CCN(c2ccc3nc(-c4c(N)c5c(F)cccc5[nH]c4=O)[nH]c3c2)CC1 [Compound [1]] as the molecule, how does the exposure [11] read?
A: Its exposure is “prolonged over-proportional exposure”.
